The source of these data is patent US9724408B2, “Compositions and methods for activating stimulator of interferon gene-dependent signalling” (ADURO BIOTECH, INC., priority 2013, dated 2017).

In the assay the target is T1, hSTING (REF) (Homo sapiens, UniProt Q86WV6).
T1 construct: GFP; expressed in transfected cells; plasmid from the Vance Laboratory, UC Berkeley
Put plainly: IFNβ-LUC reporter in HEK293T cells expressing hSTING (REF). Format: cell-based. The following applies: 10 μM, digitonin permeabilization, 6 hrs, FIG. 14. As to the method:
MSCV2.2 plasmids encoding hSTING(REF)-GFP, hSTING(WT)-GFP, hSTING(HAQ)-GFP, hSTING(Q)-GFP and mSTING(WT)-GFP were obtained from the Vance Laboratory at UC Berkeley. hSTING(AQ)-GFP was derived from hSTING(Q)-GFP using a QuickChange Site-Directed Mutagenesis kit (Stratagene). […] 1×10^4 HEK293T STING cells were seeded in 96-well plates and transiently transfected (using Lipofectamine 2000) with 50 ng of a human IFN-β reporter plasmid (pLuc-IFN-β) expressing the human IFN-β promoter upstream of a luciferase reporter and 10 ng of TK-renilla for normalization. 24 hours later, cells were stimulated with native and synthetic CDN derivative molecules using digitonin permeabalization to ensure uniform uptake. Each STING cell line was stimulated with 10 μM of cyclic [G(3′,5′)pA(3′,5′)p] (cGAMP), cyclic [G(2′,5′)pA(3′,5′)p] […] (RR-CDA), cyclic [A(2′,5′)pA(3′,5′)p] […] (RR-CDG), cyclic [G(2′,5′)pG(3′,5′)p] […] (ML RR-CDG) in 25 ul digitonin buffer (50 mM HEPES, 100 mM KCL, 3 mM MgCl2, 0.1 mM DTT, 85 mM Sucrose, 0.2% BSA, 1 mM ATP, 0.1 mM GTP, 10 ug/ml digitonin). After 20 min, the stimulation mixtures were removed and 200 ul of standard RPMI media was added. After stimulation for 6 hrs, cell lysates were prepared and reporter gene activity measured using the Dual Luciferase Assay System (Promega) on a Spectramax M3 luminometer.

T1 sequence (Q86WV6 whole entry): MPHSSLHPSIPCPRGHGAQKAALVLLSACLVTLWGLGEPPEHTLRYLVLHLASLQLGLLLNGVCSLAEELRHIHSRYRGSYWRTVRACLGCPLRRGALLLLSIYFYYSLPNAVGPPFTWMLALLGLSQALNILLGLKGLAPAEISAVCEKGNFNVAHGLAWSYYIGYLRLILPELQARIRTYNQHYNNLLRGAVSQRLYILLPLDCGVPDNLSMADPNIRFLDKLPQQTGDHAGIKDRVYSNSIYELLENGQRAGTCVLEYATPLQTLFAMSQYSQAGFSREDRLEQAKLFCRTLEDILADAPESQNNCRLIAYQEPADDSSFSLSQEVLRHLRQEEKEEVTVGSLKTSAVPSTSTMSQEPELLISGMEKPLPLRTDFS

On to `Nc1nc2c(ncn2[C@@H]2O[C@@H]3CO[P@@](O)(=S)O[C@@H]4[C@H](O)[C@@H](CO[P@@](O)(=S)O[C@H]3[C@H]2O)O[C@H]4n2cnc3c(=O)[nH]c(N)nc32)c(=O)[nH]1` [ML RR-CDG, dithio-[RP,RP]-cyclic-[G(2′,5′)pG(3′,5′)p]], for which the “IFNβ reporter response of hSTING (REF)” value is “responsive to stimulation”.
